{
  "source": "patent US20220251039A1",
  "about": "“Diaryl-B-Lactam Compound and Preparation Method and Pharmaceutical Use Thereof” (Fudan University, priority 2016, published 2022)",
  "key": {"tubulin [1]": {"tested_on": "tubulin", "assay": "Immunoblotting analysis of polymerized/depolymerized tubulin", "type": "cell-based, human", "details": "Hela cells, 6 h", "method": "After being treated with diluent (0.2% DMSO), tested compound, CA-4 or PTX for 6 h, Hela cells were lysed with microtubulestabilizing buffer, containing 100 mM PIPES, pH 6.8, 1 mM MgCl2, 2 mM EGTA, 0.5% NP-40, 2 M glycerol, 5 μM PTX and protease inhibitors cocktail (Roche), and the lysate was centrifuged at 15,000 rpm for 15 min. Supernatant containing depolymerized tubulin was carefully collected, whereas pellet (polymerized tubulin) was further dissolved in SDS-lysis buffer (Beyotime, China). Equal amounts of supernatant and dissolved pellet were subjected to immunoblotting analysis as described above using a tubulin antibody (Proteintech)."}, "tubulin [2]": {"tested_on": "tubulin", "assay": "Immunofluorescent analysis of tubulin morphology", "type": "cell-based, human", "details": "SKOV-3 cells, 24 h", "method": "After treatment with diluent (0.2% DMSO) or tested compounds at indicated concentrations for 24 h, SKOV-3 cells were fixed with methanol, permeabilized with 0.1% Triton X-100 in PBS and blocked by goat serum. Then the cells were incubated with a-tubulin antibody at 4° C. overnight, followed by incubation with Alexa 488 labeled secondary antibody (Jackson ImmunoResearch) at RT for 1 h. After being stained with DAPI, cells were examined and photographed with a Leica SP5 co-focal fluorescence microscope."}, "MDA-MB-231 cells": {"tested_on": "MDA-MB-231 cells", "assay": "Colony formation assay", "type": "cell-based, human", "details": "48 h treatment, 7-10 days growth", "method": "1000 MDA-MB-231 cells per well were seeded into 6-well plate at a single cell density and were cultured at 37° C. for 48 h. After being treated with indicated concentrations of 69, 70 and 97, CA-4 as positive control, or diluent (0.2% DMSO) as negative control for 48 h, the agents containing medium was replaced by fresh medium to allow cell growth for additional 7-10 days. Then the cells were fixed with methanol and stained with gentian violet for 30 min. The number of colonies which consisted of more than 50 cells were counted. The results were indicated as mean values from three independent determinations."}, "[3]": {"tested_on": "p-histone H3, cyclin B1 and BuBR1", "assay": "Cell cycle associated proteins assay", "type": "cell-based, human", "details": "HeLa cells, 24 h, Western blot and qPCR", "method": "A. HeLa cells were treated with 69, 70, 97 or DMSO for 24 h. After being harvested, the cells were lysed, and the concentrations of total protein were determined by BCA protein assay kit (Beyotime, China). […] The membrane was blocked with 5% BSA in TBST for 1.5 h, then incubated overnight with specific primary antibodies (Proteintech) at 4° C. After being washed three times by TBST, the membrane was incubated with specific secondary antibodies (Abnova, Taipei, China) at room temperature for 2 h. Finally, chemiluminescent reagents (Millipore) were employed to detect the protein bands.\n(§1) B. Quantitative PCR assay: HeLa cells were treated with 69, 70 or 97. The expression level of mRNA of target proteins was tested with qPCR kit (Takara)."}, "cellular apoptosis": {"tested_on": "cellular apoptosis", "assay": "Cell apoptosis analysis (Annexin V/PI)", "type": "cell-based", "details": "48 h, Annexin-V/PI flow cytometry", "method": "Cell apoptosis was detected using FITC Annexin V Apoptosis Detection Kit (BD Biosciences) according to manufacturer's instructions. Briefly, cells were incubated with indicated concentrations of 69, 70 and 97, CA-4 as positive control or diluent (0.2% DMSO) as negative control for 48 h. Then the cells were harvested, washed twice with PBS, and re-suspended in binding buffer. After being stained with Annexin-V and PI for 15 min in the dark place, cells were subjected to flow cytometry (Cytomics FC 500 MPL, Beckman Coulter) analysis. The results were indicated as mean values from three independent determinations."}, "[4]": {"tested_on": "Bax, p53 and cleaved-PARP", "assay": "Expression level of apoptosis associated proteins", "type": "cell-based, human", "details": "HeLa cells, Western blot and qPCR", "method": "A. Western blotting: After being treated with candidate compound, cells were harvested and lysed. Then, the lysate was isolated by ultracentrifuge and quantified by BCA assay according to the protocol. After being denatured, equivalent protein of each sample was separated by SDS-PAGE gel and wet-transferred onto […] nitrocellulose membrane. After being blocked by PBS containing 5% skim milk, the membrane was incubated with primary antibody at 4° C. overnight and secondary antibody at room temperature for 2 h and then visualized by enhanced chemiluminescence kit (Thermo Fisher, USA), sequentially.\nas §1"}, "KM mice": {"tested_on": "KM mice", "assay": "Acute toxicity assay", "type": "in vivo", "method": "KM mice were housed individually in a specific pathogen free facility. Groups of mice (n=10 per group, half male and half female) were injected intraperitoneally once with various dosages of 69 (95, 70, 50, 35, 25 mg/kg), 70 (500, 425, 350, 275, 200 mg/kg), 97 (275, 200, 150, 125 and 100 mg/kg) or vehicle (8.3% cremohorp EL and 8.3% alcohol in PBS) as negative control, respectively. 69, 70 and 97 was dissolved in cremeohore EL and alcohol mixture (1:1, v/v) and further diluted with PBS (1:5, v/v). The death of mice were monitored daily and recorded up to 14 days after injection."}, "A2780 cells": {"tested_on": "A2780 cells", "assay": "Xenografts tumor growth assay in nude mice", "type": "in vivo, Balb/c nude mice", "details": "A2780 xenograft", "method": "6 weeks old female Balb/c nude mice were purchased from Shanghai Slac Laboratory Animal Co. Ltd. (Shanghai, China). 2*10^6 A2780 cells suspended in 0.2 mL PBS per mouse was injected subcutaneously into the nude mice. […] Administration of agents or vehicle, or agents and measurement of tumor volumes with a digital caliper was done once every 2 days. Tumor volumes were calculated as volume=shortest diameter (W)^2*longest diameter (L)*0.52. When the average tumor volumes of vehicle treated group reached 2000 mm^3 in diameter, the mice were sacrificed and the tumors were isolated and weighed. Visceral organs of the mice as well as solid tumors were further analyzed by H&E staining."}},
  "note": "“Also recorded” adds a separate entry of the source.",
  "data": [
    {"smiles": "COc1ccc([C@H]2[C@@H](C)C(=O)N2c2cc(OC)c(OC)c(OC)c2)cc1O", "note": "[Compound 70, (3R,4R)-4-(3-hydroxy-4-methoxyphenyl)-3-methyl-1-(3,4,5-trimethoxyphenyl)azetidin-2-one]", "values": [
      {"measurement": "polymerized tubulin (immunoblotting)", "setting": "tubulin [1]", "result": "significantly inhibit tubulin aggregation; also recorded: dramatically reduction of polymerized tubulin"},
      {"measurement": "tubulin assembly (immunofluorescence)", "setting": "tubulin [2]", "result": "significantly inhibit tubulin aggregation; also recorded: strongly inhibit tubulin assembly in cancer cells"},
      {"measurement": "colony formation", "setting": "MDA-MB-231 cells", "result": "significantly inhibit the formation of colonies of cancer cells"},
      {"measurement": "expression of p-histone H3, cyclin B1 and BuBR1", "setting": "[3]", "result": "significantly promote the expression of phosphorylated histone H3, cyclin B1, and mitotic checkpoint protein BuBR1"},
      {"measurement": "cellular apoptosis", "setting": "cellular apoptosis", "result": "significantly promote apoptosis; also recorded: significantly induce cellular apoptosis"},
      {"measurement": "expression of Bax, p53 and cleaved-PARP", "setting": "[4]", "result": "significantly promote the expression of the proapoptotic protein Bax, the tumor suppressor gene p53, and the cleaved DNA repair enzyme; also recorded: significantly induce the expression of Bax, p53 and cleaved-PARP"},
      {"measurement": "No. of dead mice 5-14 days", "setting": "KM mice; 200 mg/kg i.p. once", "result": 0},
      {"measurement": "No. of dead mice 1 day", "setting": "KM mice; 200 mg/kg i.p. once", "result": 0},
      {"measurement": "No. of dead mice 2 days", "setting": "KM mice; 200 mg/kg i.p. once", "result": 0},
      {"measurement": "No. of dead mice 3 days", "setting": "KM mice; 200 mg/kg i.p. once", "result": 0},
      {"measurement": "No. of dead mice 4 days", "setting": "KM mice; 200 mg/kg i.p. once", "result": 0},
      {"measurement": "No. of dead mice Total death", "setting": "KM mice; 200 mg/kg i.p. once", "result": 0},
      {"measurement": "Survival (%) on day 14", "setting": "KM mice; 200 mg/kg i.p. once", "result": 100, "unit": "%"},
      {"measurement": "No. of dead mice 5-14 days", "setting": "KM mice; 275 mg/kg i.p. once", "result": 1},
      {"measurement": "No. of dead mice 1 day", "setting": "KM mice; 275 mg/kg i.p. once", "result": 0},
      {"measurement": "No. of dead mice 2 days", "setting": "KM mice; 275 mg/kg i.p. once", "result": 0},
      {"measurement": "No. of dead mice 3 days", "setting": "KM mice; 275 mg/kg i.p. once", "result": 0},
      {"measurement": "No. of dead mice 4 days", "setting": "KM mice; 275 mg/kg i.p. once", "result": 1},
      {"measurement": "No. of dead mice Total death", "setting": "KM mice; 275 mg/kg i.p. once", "result": 2},
      {"measurement": "Survival (%) on day 14", "setting": "KM mice; 275 mg/kg i.p. once", "result": 80, "unit": "%"},
      {"measurement": "No. of dead mice 5-14 days", "setting": "KM mice; 350 mg/kg i.p. once", "result": 0},
      {"measurement": "No. of dead mice 1 day", "setting": "KM mice; 350 mg/kg i.p. once", "result": 0},
      {"measurement": "No. of dead mice 2 days", "setting": "KM mice; 350 mg/kg i.p. once", "result": 0},
      {"measurement": "No. of dead mice 3 days", "setting": "KM mice; 350 mg/kg i.p. once", "result": 1},
      {"measurement": "No. of dead mice 4 days", "setting": "KM mice; 350 mg/kg i.p. once", "result": 0},
      {"measurement": "No. of dead mice Total death", "setting": "KM mice; 350 mg/kg i.p. once", "result": 1},
      {"measurement": "Survival (%) on day 14", "setting": "KM mice; 350 mg/kg i.p. once", "result": 90, "unit": "%"},
      {"measurement": "No. of dead mice 5-14 days", "setting": "KM mice; 425 mg/kg i.p. once", "result": 0},
      {"measurement": "No. of dead mice 1 day", "setting": "KM mice; 425 mg/kg i.p. once", "result": 0},
      {"measurement": "No. of dead mice 2 days", "setting": "KM mice; 425 mg/kg i.p. once", "result": 0},
      {"measurement": "No. of dead mice 3 days", "setting": "KM mice; 425 mg/kg i.p. once", "result": 3},
      {"measurement": "No. of dead mice 4 days", "setting": "KM mice; 425 mg/kg i.p. once", "result": 0},
      {"measurement": "No. of dead mice Total death", "setting": "KM mice; 425 mg/kg i.p. once", "result": 3},
      {"measurement": "Survival (%) on day 14", "setting": "KM mice; 425 mg/kg i.p. once", "result": 70, "unit": "%"},
      {"measurement": "No. of dead mice 5-14 days", "setting": "KM mice; 500 mg/kg i.p. once", "result": 0},
      {"measurement": "No. of dead mice 1 day", "setting": "KM mice; 500 mg/kg i.p. once", "result": 0},
      {"measurement": "No. of dead mice 2 days", "setting": "KM mice; 500 mg/kg i.p. once", "result": 0},
      {"measurement": "No. of dead mice 3 days", "setting": "KM mice; 500 mg/kg i.p. once", "result": 4},
      {"measurement": "No. of dead mice 4 days", "setting": "KM mice; 500 mg/kg i.p. once", "result": 0},
      {"measurement": "No. of dead mice Total death", "setting": "KM mice; 500 mg/kg i.p. once", "result": 4},
      {"measurement": "Survival (%) on day 14", "setting": "KM mice; 500 mg/kg i.p. once", "result": 60, "unit": "%"},
      {"measurement": "tumor growth in vivo", "setting": "A2780 cells; i.p. once every 2 days, 69 7.5 mg/kg, 70 12.5 mg/kg, 97 4 or 8 mg/kg", "result": "significantly inhibit tumor growth in vivo; also recorded: anti-tumor activities in vivo"},
      {"measurement": "H&E staining of liver, kidney and spleen", "setting": "A2780 cells; treated groups", "result": "no abnormal areas are observed in tissue staining of liver, kidney and spleen; also recorded: no detectable abnormalities were observed in liver, kidney and spleen"},
      {"measurement": "H&E staining of tumor sections (necrosis)", "setting": "A2780 cells; treated groups", "result": "cause tumor tissue to produce necrotic areas; also recorded: extensive areas of necrosis or cell death"}
    ]},
    {"smiles": "C=C1C(=O)N(c2cc(OC)c(OC)c(OC)c2)[C@H]1c1ccc(OC)c(O)c1", "note": "[Compound 1, (S)-4-(3-hydroxy-4-methoxyphenyl)-3-methylene-1-(3,4,5-trimethoxyphenyl)azetidin-2-one]", "values": [
      {"measurement": "polymerized tubulin (immunoblotting)", "setting": "tubulin [1]", "result": "significantly inhibit tubulin aggregation"},
      {"measurement": "tubulin assembly (immunofluorescence)", "setting": "tubulin [2]", "result": "significantly inhibit tubulin aggregation"}
    ]}
  ]
}
